Measurements from patent US20210330594A1, “Fast-Acting Soft Gelatin Capsules Containing A Mixture Of Pain Reliever/Fever Reducer, Diuretic And Antihistamine” (PuraCap Pharmaceutical LLC, priority 2018, published 2021).
Structures can show the parent of a compound that is named as a salt.

Test: Stability determination of softgels under accelerated conditions (API assay)
Type: physicochemical
Details: for T0 % of label: softgel of Example 1, initial (T0) API assay; for Assay % of label 40° C./75% RH 1 M / Assay % of label 40° C./75% RH 2 M / Assay % of label 40° C./75% RH 3 M: softgel, accelerated conditions 40° C./75% RH
Description: Manufactured softgels are evaluated to predict shelf life of the product. Softgel samples are kept under accelerated conditions (ACC) of 40° C./75% RH for 180 days. Samples are withdrawn and tested at predetermined periods for API assay and homogeneity. Results are compared against the label specification; if ACC-6M results (i.e., at 6 months) are within specification then a product shelf life of 2 years is predicted.

SMILES | T0 % of label | Assay % of label 40° C./75% RH 1 M | Assay % of label 40° C./75% RH 2 M | Assay % of label 40° C./75% RH 3 M
Cn1c(=O)c2[nH]c(Br)nc2n(C)c1=O [Pamabrom] | 95.5 % of label | 95.1 % of label | 95.0 % of label | 93.4 % of label
COc1ccc(CN(CCN(C)C)c2ccccn2)cc1 [Pyrilamine Maleate] | 94.3 % of label | 94.0 % of label | 94.2 % of label | 93.9 % of label
CC(=O)Nc1ccc(O)cc1 [Acetaminophen] | 94.2 % of label | 94.0 % of label | 94.1 % of label | 92.2 % of label
